{"source": "patent US10712349B2", "about": "“Circulating KIM-1 levels for detection of pathologies associated with injury to, or cancer of, the kidney” (THE BRIGHAM AND WOMEN'S HOSPITAL, INC., priority 2014, dated 2020)", "key": {"Male Sprague-Dawley rats": {"system": "Male Sprague-Dawley rats", "test": "Gentamicin-induced nephrotoxicity in rats", "type": "in vivo, rat", "settings": "for kidney histopathologic analysis: kidney tissue collected day 11", "procedure": "Rats were provided with free access to food and water and subjected to a 12-hour light and dark cycle. Rats were euthanized on day 11, and urine, plasma, and tissue samples were collected and analyzed. Tissue samples were fixed in 10% neutral buffered formalin or snap frozen. For histologic assessment, […] paraffin sections were prepared and stained with hematoxylin and eosin. The rat studies were undertaken in accordance with criteria outlined in a license granted under the Animals (Scientific Procedures) Act 1986 and approved by the University of Liverpool Animal Ethics Committee.\n(§1) Microbead-based assays for rodent and human plasma and serum KIM-1 were developed, and extensive validation of the assays were performed using previously described approaches.^24 Urinary KIM-1 in rodents and humans was measured using microbead based assays as described previously.5,7,25,26 Capture antibodies (MAB 1817 for mouse, AF1750 for human [R&D Systems]), MARKE^25 antibody for rat (developed at Brigham and Women's Hospital) were conjugated with COOH polystyrene beads (Bio-Rad) with an amine coupling kit (Bio-Rad) using N-hydroxysuccinamide-1-ethyl-3-(3-dimethylaminopropyl) carbodiimide chemistry according to the manufacturer's protocol. Approximately 6000 beads in […] of sample diluent buffer (0.1M HEPES, 0.1M NaCl, 0.1% Tween-20, and 1% BSA; pH, 7.4; filter sterilized) were incubated with […] of sample or recombinant KIM-1 protein (1817-TM-050-CF for mice, 1750-TM for humans [R&D systems]), and KIM-FC for rats [developed at Brigham and Women's Hospital]) for 45 minutes. After incubation, beads were washed three times with PBS with Tween and incubated with biotinylated anti-KIM-1 detection antibody (BAF 1817 for mice, BAF 1750 for humans [R&D Systems]) and MARKE-2 for rats [developed at Brigham and Women's Hospital]) for 30 minutes. Beads were washed again with PBS with Tween and incubated for 15 minutes with the streptavidin-phycoerythrin solution (Invitrogen). The signal from the fluorochrome, which is directly proportional to the amount of antigen bound at the microbead surface, is captured using the Bio-Plex system (Bio-Rad). Data were interpreted using a five parametric logistic regression analysis.\nThe inventors also investigated whether plasma KIM-1 levels can serve as a biomarker in gentamicin-induced kidney injury in a different rodent species, rats. […] Plasma, urine, and kidney tissue were collected on day 11. The extent of kidney damage was assessed by histo-pathologic analysis and changes in plasma creatinine. […] The lumens of the tubules were filled with casts and dead cells. […] Thus, plasma KIM-1 is a sensitive marker of ischemia and toxin-induced injury to the proximal tubule in mice and rats."}, "male BALB/c mice": {"system": "male BALB/c mice", "test": "Liver injury in mice (CCl4), specificity of plasma KIM-1 to renal injury", "type": "in vivo, mouse", "settings": "48 hours", "procedure": "As controls, male BALB/c mice were injected intraperitoneally once with 0.5 ml/kg of 10% CC14 in vegetable oil (n=5) or vegetable oil alone (vehicle, n=5), as previously de-scribed.^21 Forty-eight hours after CCl4 administration, mice were euthanized and urine, plasma, and tissue samples were collected and analyzed.\nas §1\nTo evaluate the specificity of plasma KIM-1 to renal injury, mice were treated with carbon tetrachloride (CCl4), a known hepatotoxicant. […] Thus, plasma KIM-1 was not affected by liver injury."}, "[1]": {"settings": "single dose of 10% CCl4, 0.5 ml/kg"}}, "note": "“Also recorded” adds a separate entry of the source.", "data": [{"compound": "gentamicin", "values": [{"measurement": "kidney histopathologic analysis", "setting": "Male Sprague-Dawley rats; 50 mg/kg gentamicin per day intraperitoneally for 10 days", "result": "brush border loss, focal tubular necrosis, and interstitial inflammation"}, {"measurement": "urinary KIM-1 levels (normalized to urine creatinine)", "setting": "Male Sprague-Dawley rats; 10 daily doses of 50 or 200 mg/kg, day 11", "result": "significantly increased"}, {"measurement": "kidney sections, hematoxylin and eosin staining", "setting": "Male Sprague-Dawley rats; 50 or 200 mg/kg daily for 10 days, euthanized day 11 (FIG. 1H)", "result": "loss of brush border, necrosis, and sloughing of cells into the tubular lumen"}, {"measurement": "kidney histopathologic analysis", "setting": "Male Sprague-Dawley rats; daily doses of 200 mg/kg gentamicin for 10 days", "result": "extensive diffuse cell necrosis"}]}, {"compound": "ClC(Cl)(Cl)Cl", "note": "[CCl4, carbon tetrachloride]", "values": [{"measurement": "liver histopathology", "setting": "male BALB/c mice; single dose of 10% CCl4, 0.5 ml/kg intraperitoneally", "result": "liver necrosis"}, {"measurement": "kidney morphology (histopathology)", "setting": "male BALB/c mice; [1]", "result": "No histopathologic changes"}, {"measurement": "plasma KIM-1", "setting": "male BALB/c mice; [1]", "result": "no significant alterations; also recorded: not changed"}, {"measurement": "plasma creatinine", "setting": "male BALB/c mice; [1]", "result": "no significant alterations"}, {"measurement": "urinary KIM-1", "setting": "male BALB/c mice; [1]", "result": "no significant alterations"}]}]}
